In PubChem BioAssay (NCI) one finds GI50 and TGI data, which are given here for 19 compounds.

Each structure is given as a SMILES string. Where “and” joins values, the source holds several entries; their conditions need not be identical. Equal values may be shown once.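 A five-concentration, 48-hour dose response in 96-well plates underlies each endpoint, interpolated linearly between surrounding concentrations. GI50: concentration for 50% inhibition of growth. The concentration for full growth arrest is given as TGI.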

What all share (assay): NCI tumour cell line growth inhibition, 48 h
The subject of assay [1] is HOP-62 NSCLC.
The test system of assay [2] is ACHN renal.
For assay [3], the system named is OVCAR-4 ovarian.
In assay [4] the test system is OVCAR-5 ovarian.
Assay [5] concerns CCRF-CEM leukemia.
Assay [6] has as its system SNB-75 CNS.
Assay [7] deals with HOP-92 NSCLC.
Assay [8] relates to 786-0 renal.
Assay [9] concerns HL-60(TB) leukemia.
The test system of assay [10] is SR leukemia.

Turning to `O=C1OCC(c2ccc(O)c(O)c2)=C1c1cc(O)c(O)c(O)c1`, the GI50 in [1] was 18.5 µM; in assay [2], 33.3 µM; in assay [3], 26.2 µM; in [4], 17.7 µM; in assay [5], 30.4 µM; in [6] it was 54 µM. Further, the GI50 in [7] is 2.76 µM; in [8] it was 18.1 µM. Also, the TGI is 33.3 µM in assay [1]; over 100 µM in assay [2]; 70.1 µM in [3]; 34.6 µM in assay [4]; over 100 µM in assay [5]; over 100 µM in assay [6]. Further, the results for the TGI in assay [7] and in assay [8] were 18.2 µM and 32.7 µM, respectively.

As for `COc1cc(OC)cc(N2CCC(c3c(N)nc(N)nc3Cl)CC2)c1`, the TGI in [9], in assay [1], in assay [2], in [3], in [4] and in assay [5] was over 100 µM in each case. The TGI in assay [6], in [7] and in [8] was over 100 µM throughout.

For `CCCCOC1CC2(c3ccc(OC)cc3)C(=O)c3ccccc3N2O1` (configuration not stated), the TGI is over 10 µM in assay [2]; over 10 µM in assay [4]; over 100 µM in [5]; over 100 µM in assay [6]; over 100 µM in assay [8].

With `CC(NC(=O)c1ccccc1)C(=O)N(Cc1ccccc1)Cc1ccccc1` (configuration not stated), the TGI in assay [1] is 66.4 µM; in assay [2], over 100 µM; in assay [3], 95.3 µM; in assay [4], over 100 µM; in assay [5], 47.1 µM; in assay [6] it was over 100 µM. The values for the TGI in assay [7], in [10] and in [8] were 68.7 µM, 64.6 µM and over 100 µM, respectively.

`Cc1ccc(S(=O)(=O)N(C)C)cc1[N+](=O)[O-]`: the GI50 in assay [1], in assay [2], in assay [4], in assay [5], in assay [7] and in assay [8] was over 100 µM each time. Moreover, the TGI in [1], in [2], in assay [4], in [5], in [7] and in [8] was over 100 µM throughout.

As for `CC(=O)[CH-]C(=O)c1ccccc1.CC(=O)[CH-]C(=O)c1ccccc1.[Nd+3].[OH-].[OH3+]`, the GI50 in [9] was over 100 µM; in assay [1], over 100 µM; in assay [2], over 100 µM; in assay [3] it was over 100 µM; in assay [5] it was over 100 µM; in [6] it was 60.5 µM. Further, the GI50 in assay [7] and in [8] was over 100 µM throughout. In addition, the TGI in assay [9], in [1], in [2], in [3], in [5] and in [6] was over 100 µM each time. Also, the TGI in assay [7] and in assay [8] was over 100 µM in each case.

With `COc1ccc(CNc2cc(OC)cc(OC)c2)cc1`, the TGI in assay [9], in assay [1], in [2], in assay [3], in [4] and in assay [5] was over 100 µM in each case. Also, the TGI in [6] is > 100 µM and 96.8 µM; in [7] it was over 100 µM; in assay [8], over 96.2 µM. The GI50 in assay [4] is over 78.1 µM; in assay [5], 78.7 µM and 28.6 µM.

Regarding `CN(C)CCC1(C2=CCCC2)CC/C(=C\c2ccc3c(c2)OCO3)C1=O` (configuration not stated), the TGI came out at 37 µM in assay [9]; 29.6 µM in [2]; 27.1 µM in assay [3]; 29.2 µM in assay [4]; 41.4 µM in assay [5]; 24.4 µM in assay [7]. In assay [8], this compound gave a TGI of 26.9 µM.

Take `COc1nc(OC)c2c(=O)oc(-c3ccccc3)cc2n1`: the TGI in assay [2], in assay [3], in assay [4], in assay [6], in assay [7] and in assay [10] was over 100 µM each time. This compound also yielded a TGI in [8] of over 100 µM.

Regarding `O=S(=O)(Nc1ccc(-c2nc(-c3cccc(OCCN4CCOCC4)c3)c(-c3ccnc(Br)c3)[nH]2)cc1)c1ccccc1`, the GI50 in [1] was 3.5 µM; in assay [2], 2.99 µM; in [3], 4.16 µM; in assay [4] it was 5.99 µM; in [5] it was 2.89 µM; in [7] it was 2.41 µM. Further, the values for the GI50 in assay [10] and in assay [8] were 2.62 µM and 2.37 µM, respectively. The TGI in assay [1] was 57.3 µM; in assay [2], over 100 µM; in [3], over 100 µM; in assay [4], over 100 µM; in assay [5] it was over 100 µM; in assay [7], 8.18 µM. The values for the TGI in assay [10] and in assay [8] were over 100 µM and 7.96 µM, respectively.

As to `O=C(NC1CCCCC1)c1c(O)[nH]c(=S)[nH]c1=O`, the TGI in assay [1], in assay [2], in [3], in assay [4], in assay [5] and in assay [6] was over 100 µM each time. The TGI in assay [7], in assay [10] and in assay [8] was over 100 µM each time.

`N#C/C(=C\c1ccc(CP(=O)(O)O)cc1)C(N)=O`: the TGI in assay [9], in assay [1], in [2], in assay [3], in assay [4] and in assay [5] was over 100 µM throughout. Besides, the TGI in assay [7] and in [8] was over 100 µM in each case.

As to `CCOC(C)OCC#CCCBr` (configuration not stated), the TGI in [9], in assay [1], in [2], in [3], in assay [4] and in assay [5] was over 100 µM in each case. In addition, the TGI in [6] and in assay [8] was over 100 µM each time.

Consider `Nc1ccccc1C#C/C=C\C#Cc1ccc(F)cc1F`, for which the GI50 in assay [9] was 21.8 µM; in assay [1] it was 16 µM; in assay [2], 16.6 µM; in assay [3] it was 37.1 µM; in assay [4], 14.8 µM; in [5], 0.444 µM. Further, the GI50 is 18.3 µM in [7] and 14.7 µM in assay [8]. For the same compound, the TGI was over 100 µM in [9]; 30 µM in assay [1]; 32.2 µM in assay [2]; over 100 µM in [3]; 29.6 µM in assay [4]; 10.9 µM in assay [5]. The TGI in assay [7] was 59.7 µM; in assay [8], 28.7 µM.

Take `O=C1CCC2(c3ccc(F)cc3)Nc3ccccc3N12` (configuration not stated): the TGI in assay [9], in assay [1], in assay [2], in [3], in [4] and in assay [5] was over 100 µM throughout. Also, the TGI in assay [6], in assay [7] and in assay [8] was over 100 µM in each case.

Consider `C=C1C(=O)O[C@@H]2C[C@]3(C)[C@@H](C[C@H]12)[C@](C)(O)CC[C@@H]3O`, for which the TGI in assay [1], in assay [2], in assay [3], in [4], in assay [5] and in assay [6] was over 100 µM in each case. Moreover, the TGI in assay [7] and in assay [8] was over 100 µM each time.

For `O=CC1=CCCC2(C1)OCCO2`, the TGI in assay [9] was over 100 µM; in [1] it was over 100 µM; in [3] it was over 100 µM; in assay [5], over 100 µM; in [6], 24.2 µM; in assay [7], over 100 µM. Also, the TGI in assay [8] was over 100 µM.

With `O=c1/c(=C/c2cccc3ccccc23)sc2nc3ccccc3n12`, the TGI in assay [9], in [1], in [2], in assay [3], in assay [4] and in assay [6] was over 100 µM each time. The TGI in [7] and in [8] was over 100 µM throughout.

`[Cu+2].[Cu+2].[O-]c1ccccc1C=Nc1ccccc1[O-].[O-]c1ccccc1C=Nc1ccccc1[O-]`: the GI50 is 2.52 µM in assay [9]; 21.9 µM in assay [1]; 7.81 µM in assay [2]; 2.6 µM in assay [3]; 17.7 µM in assay [4]; 3.33 µM in assay [5]. The figures for the GI50 in [6] and in [8] were 10.2 µM and 7.24 µM, respectively. The TGI in [9] amounted to 7.24 µM; in assay [1], 36.6 µM; in assay [2] it was 20.8 µM; in assay [3] it was 8.23 µM; in assay [4], 32.6 µM; in assay [5] it was 21.3 µM. Moreover, the TGI in [6] came to 21.8 µM; in assay [8] it was 20.3 µM.
